# Reference: patent US20250171437A1 (Agios Pharmaceuticals,Inc., priority 2022, published 2025)
# Biological target: T1, human PAH with the R408W mutation (A375 R408W cells) (Homo sapiens, UniProt P00439, R408W)
# T1 construct: expressed in transfected cells
# T1 sequence (P00439 1-452 R408W): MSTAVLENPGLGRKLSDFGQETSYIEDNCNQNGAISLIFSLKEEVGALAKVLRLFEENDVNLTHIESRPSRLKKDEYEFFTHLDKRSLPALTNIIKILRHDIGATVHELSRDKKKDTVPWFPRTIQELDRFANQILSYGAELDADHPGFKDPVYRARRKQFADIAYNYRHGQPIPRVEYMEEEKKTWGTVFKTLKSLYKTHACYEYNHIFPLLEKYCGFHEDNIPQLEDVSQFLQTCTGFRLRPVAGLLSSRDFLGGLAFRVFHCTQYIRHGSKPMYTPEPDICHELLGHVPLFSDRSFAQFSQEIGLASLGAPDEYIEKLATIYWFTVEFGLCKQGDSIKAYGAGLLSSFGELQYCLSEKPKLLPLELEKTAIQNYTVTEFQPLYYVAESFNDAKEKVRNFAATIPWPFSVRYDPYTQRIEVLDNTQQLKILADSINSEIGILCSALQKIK
# Assay: Cell Based Phenylalanine Flux Assay
# Settings: A375 R408W cells; 24 hrs with compound, then 20 μM sepiapterin and 800 μM 13C9,15N-Phenylalanine for 4 hours; 13C-Tyrosine by LC-MS; average where tested multiple times
# Summary of the method: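 Puromycin-selected A375 line, lentiviral hPAH R408W; cmpd 24 h, 37 °C, 5% CO2, 0.5% DMSO; then 20 μM sepiapterin + 800 μM 13C9,15N-Phe, 4 h; media extracted in 80% MeCN; 13C-Tyr by LC-MS; AC50 from 10-pt curves.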
row,SMILES,AC50 [nM]
1,"Cc1ccc2nc([C@H]3c4nc[nH]c4CCN3C(=O)c3nnc(-c4cc[nH]n4)o3)oc2c1 [Example 360, (R)-(5-(1H-pyrazol-3-yl)-1,3,4-oxadiazol-2-yl)(4-(6-methylbenzo[d]oxazol-2-yl)-6,7-dihydro-1H-imidazo[4,5-c]pyridin-5(4H)-yl)methanone]",1000 to 5000
2,"Cc1cccc2oc([C@@H]3c4nc[nH]c4CCN3C(=O)c3oc(C(C)(C)O)nc3C(F)F)nc12 [Example 361, (S)-(4-(difluoromethyl)-2-(2-hydroxypropan-2-yl)oxazol-5-yl)(4-(4-methylbenzo[d]oxazol-2-yl)-6,7-dihydro-1H-imidazo[4,5-c]pyridin-5(4H)-yl)methanone]",≤ 500
3,"Cc1cccc2oc([C@H]3c4nc[nH]c4CCN3C(=O)c3oc(C(C)(C)O)nc3C(F)F)nc12 [Example 362, (R)-(4-(difluoromethyl)-2-(2-hydroxypropan-2-yl)oxazol-5-yl)(4-(4-methylbenzo[d]oxazol-2-yl)-6,7-dihydro-1H-imidazo[4,5-c]pyridin-5(4H)-yl)methanone]",1000 to 5000
4,"CN1CCN(c2ccc3c(C(=O)N4CCc5[nH]cnc5[C@H]4c4nc5cccc(F)c5o4)cnn3c2)CC1 [Example 363, (S)-(4-(7-fluorobenzo[d]oxazol-2-yl)-6,7-dihydro-1H-imidazo[4,5-c]pyridin-5(4H)-yl)(6-(4-methylpiperazin-1-yl)pyrazolo[1,5-a]pyridin-3-yl)methanone]",≤ 500
5,"CN1CCN(c2ccc3c(C(=O)N4CCc5[nH]cnc5[C@@H]4c4nc5cccc(F)c5o4)cnn3c2)CC1 [Example 364, (R)-(4-(7-fluorobenzo[d]oxazol-2-yl)-6,7-dihydro-1H-imidazo[4,5-c]pyridin-5(4H)-yl)(6-(4-methylpiperazin-1-yl)pyrazolo[1,5-a]pyridin-3-yl)methanone]",1000 to 5000
6,"O=C(c1cnn2cc(N3CCOCC3)ccc12)N1CCc2[nH]cnc2[C@H]1c1nc2cccc(F)c2o1 [Example 365, (S)-(4-(7-fluorobenzo[d]oxazol-2-yl)-6,7-dihydro-1H-imidazo[4,5-c]pyridin-5(4H)-yl)(6-morpholinopyrazolo[1,5-a]pyridin-3-yl)methanone]",500 to 1000
7,"O=C(c1cnn2cc(N3CCOCC3)ccc12)N1CCc2[nH]cnc2[C@@H]1c1nc2cccc(F)c2o1 [Example 366, (R)-(4-(7-fluorobenzo[d]oxazol-2-yl)-6,7-dihydro-1H-imidazo[4,5-c]pyridin-5(4H)-yl)(6-morpholinopyrazolo[1,5-a]pyridin-3-yl)methanone]",1000 to 5000
8,"CC(C)(O)C1CCN(c2ccc3c(C(=O)N4CCc5[nH]cnc5[C@H]4c4nc5cccc(F)c5o4)cnn3c2)CC1 [Example 368, (S)-(4-(7-fluorobenzo[d]oxazol-2-yl)-6,7-dihydro-1H-imidazo[4,5-c]pyridin-5(4H)-yl)(6-(4-(2-hydroxypropan-2-yl)piperidin-1-yl)pyrazolo[1,5-a]pyridin-3-yl)methanone]",500 to 1000
9,"O=C(c1cnn2cc(N3CCC(F)CC3)ccc12)N1CCc2[nH]cnc2[C@H]1c1nc2cccc(F)c2o1 [Example 369, (S)-(4-(7-fluorobenzo[d]oxazol-2-yl)-6,7-dihydro-1H-imidazo[4,5-c]pyridin-5(4H)-yl)(6-(4-fluoropiperidin-1-yl)pyrazolo[1,5-a]pyridin-3-yl)methanone]",≤ 500
10,"O=C(c1cnn2cc(N3CCC(O)CC3)ccc12)N1CCc2[nH]cnc2[C@H]1c1nc2cccc(F)c2o1 [Example 371, (S)-(4-(7-fluorobenzo[d]oxazol-2-yl)-6,7-dihydro-1H-imidazo[4,5-c]pyridin-5(4H)-yl)(6-(4-hydroxypiperidin-1-yl)pyrazolo[1,5-a]pyridin-3-yl)methanone]",500 to 1000
11,"O=C(c1ocnc1C(F)F)N1CCc2[nH]cnc2[C@H]1c1nc2c(F)ccc(F)c2o1 [Example 373, (S)-(4-(4,7-difluorobenzo[d]oxazol-2-yl)-6,7-dihydro-1H-imidazo[4,5-c]pyridin-5(4H)-yl)(4-(difluoromethyl)oxazol-5-yl)methanone]",≤ 500
12,"CC(C)(O)c1nc(C(F)F)c(C(=O)N2CCc3[nH]cnc3[C@H]2c2nc3cc(Cl)ccc3o2)o1 [Example 375, (S)-(4-(5-chlorobenzo[d]oxazol-2-yl)-6,7-dihydro-1H-imidazo[4,5-c]pyridin-5(4H)-yl)(4-(difluoromethyl)-2-(2-hydroxypropan-2-yl)oxazol-5-yl)methanone]",500 to 1000
13,"CC(C)(O)c1nc(C(F)F)c(C(=O)N2CCc3[nH]cnc3[C@@H]2c2nc3cc(Cl)ccc3o2)o1 [Example 376, (R)-(4-(5-chlorobenzo[d]oxazol-2-yl)-6,7-dihydro-1H-imidazo[4,5-c]pyridin-5(4H)-yl)(4-(difluoromethyl)-2-(2-hydroxypropan-2-yl)oxazol-5-yl)methanone]",1000 to 5000
14,"O=C(c1ocnc1C(F)F)N1CCc2[nH]cnc2[C@H]1c1nc2cc(Cl)ccc2o1 [Example 378, (S)-(4-(5-chlorobenzo[d]oxazol-2-yl)-6,7-dihydro-1H-imidazo[4,5-c]pyridin-5(4H)-yl)(4-(difluoromethyl)oxazol-5-yl)methanone]",≤ 500

# Second part, the molecule after the results:
row,AC50 [nM],SMILES
1,500 to 1000,"Cc1ccc2nc([C@@H]3c4nc[nH]c4CCN3C(=O)c3nnc(-c4cc[nH]n4)o3)oc2c1 [Example 359, (S)-(5-(1H-pyrazol-3-yl)-1,3,4-oxadiazol-2-yl)(4-(6-methylbenzo[d]oxazol-2-yl)-6,7-dihydro-1H-imidazo[4,5-c]pyridin-5(4H)-yl)methanone]"
2,1000 to 5000,"CC(C)(O)C1CCN(c2ccc3c(C(=O)N4CCc5[nH]cnc5[C@@H]4c4nc5cccc(F)c5o4)cnn3c2)CC1 [Example 367, (R)-(4-(7-fluorobenzo[d]oxazol-2-yl)-6,7-dihydro-1H-imidazo[4,5-c]pyridin-5(4H)-yl)(6-(4-(2-hydroxypropan-2-yl)piperidin-1-yl)pyrazolo[1,5-a]pyridin-3-yl)methanone]"
3,1000 to 5000,"O=C(c1cnn2cc(N3CCC(F)CC3)ccc12)N1CCc2[nH]cnc2[C@@H]1c1nc2cccc(F)c2o1 [Example 370, (R)-(4-(7-fluorobenzo[d]oxazol-2-yl)-6,7-dihydro-1H-imidazo[4,5-c]pyridin-5(4H)-yl)(6-(4-fluoropiperidin-1-yl)pyrazolo[1,5-a]pyridin-3-yl)methanone]"
4,1000 to 5000,"O=C(c1cnn2cc(N3CCC(O)CC3)ccc12)N1CCc2[nH]cnc2[C@@H]1c1nc2cccc(F)c2o1 [Example 372, (R)-(4-(7-fluorobenzo[d]oxazol-2-yl)-6,7-dihydro-1H-imidazo[4,5-c]pyridin-5(4H)-yl)(6-(4-hydroxypiperidin-1-yl)pyrazolo[1,5-a]pyridin-3-yl)methanone]"
5,≤ 500,"O=C(c1ocnc1C(F)F)N1CCc2[nH]cnc2[C@@H]1c1nc2c(F)ccc(F)c2o1 [Example 374, (R)-(4-(4,7-difluorobenzo[d]oxazol-2-yl)-6,7-dihydro-1H-imidazo[4,5-c]pyridin-5(4H)-yl)(4-(difluoromethyl)oxazol-5-yl)methanone]"
6,500 to 1000,"O=C(c1ocnc1C(F)F)N1CCc2[nH]cnc2[C@@H]1c1nc2cc(Cl)ccc2o1 [Example 377, (R)-(4-(5-chlorobenzo[d]oxazol-2-yl)-6,7-dihydro-1H-imidazo[4,5-c]pyridin-5(4H)-yl)(4-(difluoromethyl)oxazol-5-yl)methanone]"
